Measured values published in ChEMBL document CHEMBL1909046, “DrugMatrix in vitro pharmacology data”.

Assays:
[1] = DRUGMATRIX: Calcium Channel Type L, Benzothiazepine radioligand binding (ligand: [3H] Diltiazem); assay type: cell membranes, Rattus norvegicus, Wistar, Brain, Membrane; conditions: Not Active = under 50% inhibition at 10 µM
[2] = DRUGMATRIX: Phorbol Ester radioligand binding (ligand: [3H] PDBu); assay type: cell membranes, Mus musculus, ICR, Brain, Membrane; conditions: Not Active = under 50% inhibition at 10 µM
[3] = biological target: T1, Alpha-2C adrenergic receptor (Homo sapiens, UniProt P18825); assay: DRUGMATRIX: Adrenergic Alpha-2C radioligand binding (ligand: [3H] MK-912); assay type: cell membranes, Sf9, Membrane
T1 sequence (P18825 whole entry): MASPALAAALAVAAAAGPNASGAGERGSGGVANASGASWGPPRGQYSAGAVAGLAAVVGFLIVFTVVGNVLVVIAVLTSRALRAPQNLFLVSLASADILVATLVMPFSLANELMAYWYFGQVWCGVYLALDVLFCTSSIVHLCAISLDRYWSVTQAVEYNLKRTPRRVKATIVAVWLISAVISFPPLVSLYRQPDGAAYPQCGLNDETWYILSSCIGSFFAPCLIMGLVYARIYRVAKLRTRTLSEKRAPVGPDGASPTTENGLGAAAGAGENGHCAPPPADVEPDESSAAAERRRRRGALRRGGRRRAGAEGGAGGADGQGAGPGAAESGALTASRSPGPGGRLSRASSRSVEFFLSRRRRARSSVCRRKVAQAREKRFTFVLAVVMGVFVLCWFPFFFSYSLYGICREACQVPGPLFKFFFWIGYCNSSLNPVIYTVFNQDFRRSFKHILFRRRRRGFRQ

[4] = biological target: T2, Receptor-type tyrosine-protein phosphatase C (Homo sapiens, UniProt P08575); design: species or system Escherichia coli;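 also: inhibition of CD45 enzyme activity measured using DiFMUP as substrate; in other assays of this panel Not Active means under 50% inhibition at 10 µM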
T2 sequence (P08575 whole entry): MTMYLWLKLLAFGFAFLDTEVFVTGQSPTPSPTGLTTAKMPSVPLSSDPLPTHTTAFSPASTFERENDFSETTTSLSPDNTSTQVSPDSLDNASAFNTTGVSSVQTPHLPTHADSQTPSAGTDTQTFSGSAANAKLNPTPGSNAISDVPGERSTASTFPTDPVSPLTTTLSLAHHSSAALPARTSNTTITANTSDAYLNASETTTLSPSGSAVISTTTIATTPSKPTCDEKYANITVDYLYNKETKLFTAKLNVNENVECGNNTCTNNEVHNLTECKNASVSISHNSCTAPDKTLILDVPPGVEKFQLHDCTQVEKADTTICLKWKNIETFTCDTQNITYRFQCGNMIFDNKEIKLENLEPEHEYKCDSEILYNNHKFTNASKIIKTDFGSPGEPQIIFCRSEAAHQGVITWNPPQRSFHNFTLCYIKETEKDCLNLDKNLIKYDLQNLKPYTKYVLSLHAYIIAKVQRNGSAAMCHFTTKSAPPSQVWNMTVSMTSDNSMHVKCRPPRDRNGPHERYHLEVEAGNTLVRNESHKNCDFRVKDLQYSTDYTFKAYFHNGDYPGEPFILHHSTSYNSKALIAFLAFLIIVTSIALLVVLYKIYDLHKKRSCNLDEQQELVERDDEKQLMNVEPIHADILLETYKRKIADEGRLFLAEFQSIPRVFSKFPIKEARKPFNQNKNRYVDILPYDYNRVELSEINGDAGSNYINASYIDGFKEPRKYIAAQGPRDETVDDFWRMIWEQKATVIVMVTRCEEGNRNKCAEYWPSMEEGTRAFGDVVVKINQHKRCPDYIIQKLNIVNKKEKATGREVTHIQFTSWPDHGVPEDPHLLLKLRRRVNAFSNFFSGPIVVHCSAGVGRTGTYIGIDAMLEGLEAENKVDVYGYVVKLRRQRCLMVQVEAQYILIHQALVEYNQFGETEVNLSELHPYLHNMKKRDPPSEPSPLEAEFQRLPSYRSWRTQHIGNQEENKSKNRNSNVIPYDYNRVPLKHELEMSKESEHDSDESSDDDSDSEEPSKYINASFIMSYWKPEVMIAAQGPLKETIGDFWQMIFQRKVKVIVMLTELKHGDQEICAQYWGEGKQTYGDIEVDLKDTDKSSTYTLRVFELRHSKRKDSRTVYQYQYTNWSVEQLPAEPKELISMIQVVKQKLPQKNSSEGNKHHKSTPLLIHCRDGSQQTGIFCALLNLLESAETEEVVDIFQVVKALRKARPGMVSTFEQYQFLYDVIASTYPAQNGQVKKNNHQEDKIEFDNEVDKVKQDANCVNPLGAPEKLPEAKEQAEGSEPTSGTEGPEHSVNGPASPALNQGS

[5] = biological target: T3, D(4) dopamine receptor (Homo sapiens, UniProt P21917); assay: DRUGMATRIX: Dopamine D4.2 radioligand binding (ligand: [3H] Spiperone); assay type: cell membranes, CHO-K1, Membrane; conditions: cho-k1; Not Active = under 50% inhibition at 10 µM
T3 sequence (P21917 whole entry): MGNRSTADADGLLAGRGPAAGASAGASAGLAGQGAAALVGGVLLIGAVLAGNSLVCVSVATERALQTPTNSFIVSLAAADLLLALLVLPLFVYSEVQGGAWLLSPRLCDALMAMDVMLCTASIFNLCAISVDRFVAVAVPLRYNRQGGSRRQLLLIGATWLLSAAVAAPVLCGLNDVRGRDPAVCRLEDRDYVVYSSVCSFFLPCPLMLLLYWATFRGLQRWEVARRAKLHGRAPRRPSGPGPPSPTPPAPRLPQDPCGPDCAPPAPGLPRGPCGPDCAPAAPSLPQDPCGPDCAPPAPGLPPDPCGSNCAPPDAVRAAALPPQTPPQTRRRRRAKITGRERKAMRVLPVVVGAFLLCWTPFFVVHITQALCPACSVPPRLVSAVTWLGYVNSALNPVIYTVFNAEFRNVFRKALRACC

Row | Molecule | IC50 [1] | Ki [1] | IC50 [2] | Ki [2] | IC50 ([3]; sf9) | IC50 [4] | IC50 [5] | IC50 ([1]; read-out: IC50) [nM] | Ki ([1]; read-out: Ki) [nM] | IC50 ([3]; read-out: IC50) [nM] | Ki ([3]; read-out: Ki) [nM] | Ki ([3]; sf9) | Ki [4] | Ki [5]
1 | NNCCc1ccccc1 [PHENELZINE] | Not Active | Not Active | Not Active | Not Active | Not Active | Not Active | Not Active |  |  |  |  |  |  | 
2 | CCc1ccc(CCOc2ccc(CC3SC(=O)NC3=O)cc2)nc1 (configuration not stated) [PIOGLITAZONE] | Not Active | Not Active | Not Active | Not Active | Not Active | Not Active | Not Active |  |  |  |  |  |  | 
3 | CCCNC(C)C(=O)Nc1ccccc1C (configuration not stated) [PRILOCAINE] | Not Active | Not Active | Not Active | Not Active | Not Active | Not Active | Not Active |  |  |  |  |  |  | 
4 | CCN(CC)CCNC(=O)c1ccc(N)cc1 [PROCAINAMIDE] | Not Active | Not Active | Not Active | Not Active | Not Active | Not Active | Not Active |  |  |  |  |  |  | 
5 | CCN(CC)CCCC(C)Nc1c2ccc(Cl)cc2nc2ccc(OC)cc12 (configuration not stated) [QUINACRINE] |  |  | Not Active | Not Active |  | Not Active | Not Active | 1080 | 956 | 3860 | 560 |  |  | 
6 | C[C@]12C=CC(=O)C=C1CC[C@H]1[C@@H]3C[C@@H](O)[C@](O)(C(=O)CO)[C@@]3(C)C[C@H](O)[C@@]12F [TRIAMCINOLONE] | Not Active | Not Active | Not Active | Not Active | Not Active | Not Active | Not Active |  |  |  |  |  |  | 
7 | CC[C@]1(O)C[C@@H]2CN(CCc3c([nH]c4ccccc34)[C@@](C(=O)OC)(c3cc4c(cc3OC)N(C)[C@H]3[C@@](O)(C(N)=O)[C@H](O)[C@]5(CC)C=CCN6CC[C@]43[C@@H]65)C2)C1 [VINDESINE] | Not Active | Not Active | Not Active | Not Active | Not Active | Not Active | Not Active |  |  |  |  |  |  | 
8 | CCN(C(C)=O)c1cccc(-c2ccnc3c(C#N)cnn23)c1 [ZALEPLON] | Not Active | Not Active | Not Active | Not Active | Not Active | Not Active | Not Active |  |  |  |  |  |  | 
9 | COBALTOUS CHLORIDE | Not Active | Not Active | Not Active | Not Active | Not Active | Not Active | Not Active |  |  |  |  | Not Active | Not Active | Not Active
10 | COLISTIN | Not Active | Not Active | Not Active | Not Active | Not Active | Not Active | Not Active |  |  |  |  | Not Active | Not Active | Not Active
